Target: hQC (Homo sapiens, UniProt Q16769)
Test: Fluorometric (fluorescent) assay of hQC inhibition, IC50
Format: biochemical
Settings: read-out: IC50
Protocol: All compounds were immediately tested regarding their activity as hQC inhibitors.
The purity of the compounds was determined by HPLC-MS. The IC50 value against hQC was measured using the fluorescent assay.
All measurements were performed with a BioAssay Reader HTS-7000Plus for microplates (Perkin Elmer) at 30° C. QC activity was evaluated fluorometrically using H-Gln-βNA. The samples consisted of 0.2 mM fluorogenic substrate, 0.25 U pyroglutamyl aminopeptidase (Unizyme, Horsholm, Denmark) in 0.2 M Tris/HCl, pH 8.0 containing 20 mM EDTA and an appropriately diluted aliquot of QC in a final volume of 250 μl. Excitation/emission wavelengths were 320/410 nm. The assay reactions were initiated by addition of glutaminyl cyclase. QC activity was determined from a standard curve of β-naphthylamine under assay conditions. One unit is defined as the amount of QC catalyzing the formation of 1 μmol pGlu-βNA from H-Gln-βNA per minute under the described conditions.
In a second fluorometric assay, QC was activity determined using H-Gln-AMC as substrate. Reactions were carried out at 30° C. utilizing the NOVOStar reader for microplates (BMG labtechnologies). The samples consisted of varying concentrations of the fluorogenic substrate, 0.1 U pyroglutamyl aminopeptidase (Qiagen) in 0.05 M Tris/HCl, pH 8.0 containing 5 mM EDTA and an appropriately diluted aliquot of QC in a final volume of 250 μl. Excitation/emission wavelengths were 380/460 nm. The assay reactions were initiated by addition of glutaminyl cyclase. QC activity was determined from a standard curve of 7-amino-4-methylcoumarin under assay conditions. The kinetic data were evaluated using GraFit sofware.
For inhibitor testing, the sample composition was the same as described above, except of the putative inhibitory compound added. For a rapid test of QC-inhibition, samples contained 4 mM of the respective inhibitor and a substrate concentration at 1 KM. For detailed investigations of the inhibition and determination of Ki-values, influence of the inhibitor on the auxiliary enzymes was investigated first. […] The inhibitory constant was evaluated by fitting the set of progress curves to the general equation for competitive inhibition using GraFit software.

Chain of hQC (Q16769 29-361): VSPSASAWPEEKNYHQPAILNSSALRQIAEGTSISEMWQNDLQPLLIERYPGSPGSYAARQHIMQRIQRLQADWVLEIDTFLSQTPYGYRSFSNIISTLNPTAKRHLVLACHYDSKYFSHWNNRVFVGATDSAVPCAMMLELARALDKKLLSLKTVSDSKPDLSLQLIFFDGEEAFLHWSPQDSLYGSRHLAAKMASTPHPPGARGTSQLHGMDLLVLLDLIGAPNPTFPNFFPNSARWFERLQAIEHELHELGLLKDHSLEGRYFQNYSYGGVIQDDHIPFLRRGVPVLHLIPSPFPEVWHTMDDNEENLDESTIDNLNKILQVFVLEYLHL

Compound | IC50
Clc1ccc(Cn2nnnc2[C@H](NCCCn2ccnc2)C2CCC=CO2)cc1 (stereo partly drawn) [compound 9, {(S)-[1-(4-Chloro-benzyl)-1H-tetrazol-5-yl]-3,4-dihydro-2H-pyran-2-yl-methyl}-(3-imidazol-1-yl-propyl)-amine] | 4.9 µM
Cc1ccc2c(C(NCCCn3ccnc3)c3nnnn3C[C@@H]3CCCO3)c[nH]c2c1 (stereo partly drawn) [compound 16, (3-Imidazol-1-yl-propyl)-((6-methyl-1H-indol-3-yl)-{1-[(S)-1-(tetrahydro-furan-2-yl)methyl]-1H-tetrazol-5-yl}-methyl)-amine] | 7.6 µM
Cc1cc(C)c(C(NCCCn2ccnc2)c2nnnn2C[C@@H]2CCCO2)cc1C (stereo partly drawn) [compound 17, (3-Imidazol-1-yl-propyl)-[{1-[(S)-1-(tetrahydro-furan-2-yl)methyl]-1H-tetrazol-5-yl}-(2,4,5-trimethyl-phenyl)-methyl]-amine] | 4 µM
CCCCn1nnnc1C(NCCCn1ccnc1)c1cc(C)ccc1O (stereo not drawn) [compound 19, 2[(1-Butyl-1H-tetrazol-5-yl)-(3-imidazol-1-yl-propylamino)-mehtyl]-4-methyl-phenol] | 2.2 µM
CCCCn1nnnc1C(NCCCn1ccnc1)c1ccc2cccc(O)c2n1 (stereo not drawn) [compound 20, 2-[(1-Butyl-1H-tetrazol-5-yl)-(3-imidazol-1-yl-propylamino)-methyl]-quinolin-8-ol] | 2.2 µM
CCCCn1nnnc1C(NCCCn1ccnc1)c1ccc2ccccc2n1 (stereo not drawn) [compound 22, [(1-Butyl-1H-tetrazol-5-yl)-quinolin-2-yl-methyl]-(3-imidazol-1-yl-propyl)-amine] | 3.1 µM
CCCCn1nnnc1C(NCCCn1ccnc1)c1cc2ccccc2o1 (stereo not drawn) [compound 23] | 9.4 µM
CCCCn1nnnc1C(NCCCn1ccnc1)c1cc(C)c(C)cc1C (stereo not drawn) [compound 24, [(1-Butyl-1H-tetrazol-5-yl)-(2,4,5-trimethyl-phenyl)-methy]-(3-imidazol-1-yl-propyl)-amine] | 4.9 µM
Cn1nnnc1C(NCCCn1ccnc1)c1ccc2[nH]ccc2c1 (stereo not drawn) [compound 30, (3-Imidazol-1-yl-propyl)-[(1H-indol-5-yl)-(1-methyl-1H-tetrazol-5-yl)-methyl]-amine] | 4 µM
Cn1nnnc1C(NCCCn1ccnc1)c1ccc2ccccc2n1 (stereo not drawn) [compound 31, (3-Imidazol-1-yl-propyl)-[(1-methyl-1H-tetrazol-5-yl)-quinolin-2-yl-methyl]-amine] | 4.9 µM
COCCCn1nnnc1C(NCCCn1ccnc1)c1ccc(Cl)c(Cl)c1 (stereo not drawn) [compound 32, {(3,4-Dichloro-phenyl)-[1-(3-methoxy-propyl)-1H-tetrazol-5-yl]-methyl}-(3-imidazol-1-yl-propyl)-amine] | 7.6 µM
COCCCn1nnnc1C(NCCCn1ccnc1)c1ccc2ccccc2n1 (stereo not drawn) [compound 36, (3-Imidazol-1-yl-propyl)-{[1-(3-methoxy-propyl)-1H-tetrazol-5-yl]-quinolin-2-yl-methyl}-amine] | 3.1 µM
CN(C)CCn1nnnc1C(NCCCn1ccnc1)c1ccc2cccc(O)c2n1 (stereo not drawn) [compound 37, 2-[[1-(2-Dimethylamino-ethyl)-1H-tetrazol-5-yl]-(3-imidazol-1-yl-propylamino)-methyl]-quinolin-8-ol] | 4.9 µM
COCCn1nnnc1C(NCCCn1ccnc1)c1cc(C)ccc1O (stereo not drawn) [compound 39, 2-{(3-Imidazol-1-yl-propylamino)-[1-(2-methoxy-ethyl)-1H-tetrazol-5-yl]-methyl}-4-methyl-phenol] | 8.5 µM
COCCn1nnnc1C(NCCCn1ccnc1)c1ccc2cccc(O)c2n1 (stereo not drawn) [compound 40, 2-{(3-Imidazol-1-yl-propylamino)-[1-(2-methoxy-ethyl)-1H-tetrazol-5-yl]-methyl}-quinolin-8-ol] | 3.1 µM
COCCn1nnnc1C(NCCCn1ccnc1)c1ccc2[nH]ccc2c1 (stereo not drawn) [compound 41, (3-Imidazol-1-yl-propyl)-{(1H-indol-5-yl)-[1-(2-methoxy-ethyl)-1H-tetrazol-5-yl]-methyl}-amine] | 4.9 µM
COCCn1nnnc1C(NCCCn1ccnc1)c1ccc2ccccc2n1 (stereo not drawn) [compound 42, (3-Imidazol-1-yl-propyl)-{[1-(2-methoxy-ethyl)-1H-tetrazol-5-yl]-quinolin-2-yl-methyl}-amine] | 5.8 µM
C=CCn1nnnc1C(NCCCn1ccnc1)c1cc(C)ccc1O (stereo not drawn) [compound 44, 2-[(1-Allyl-1H-tetrazol-5-yl)-(3-imidazol-1-yl-propylamino)-methyl]-4-methyl-phenol] | 4.9 µM
C=CCn1nnnc1C(NCCCn1ccnc1)c1ccc2cccc(O)c2n1 (stereo not drawn) [compound 45, 2-[(1-Allyl-1H-tetrazol-5-yl)-(3-imidazol-1-yl-propylamino)-methyl]-quinolin-8-ol] | 4 µM
C=CCn1nnnc1C(NCCCn1ccnc1)c1ccc2[nH]ccc2c1 (stereo not drawn) [compound 46, [(1-Allyl-1H-tetrazol-5-yl)-(1H-indol-5-yl)-methyl]-(3-imidazol-1-yl-propyl)-amine] | 7.6 µM

The remaining compounds from weak to strong by IC50, led by results:

IC50 | Compound
7.6 µM | CCCCn1nnnc1C(NCCCn1ccnc1)c1ccc(Cl)c(Cl)c1 (stereo not drawn) [compound 18, [(1-Butyl-1H-tetrazol-5-yl)-(3,4-dichloro-phenyl)-methyl]-(3-imidazol-1-yl-propyl)-amine]
7.6 µM | COCCCn1nnnc1C(NCCCn1ccnc1)c1ccc2[nH]ccc2c1 (stereo not drawn) [compound 35, (3-Imidazol-1-yl-propyl)-{(1H-indol-5-yl)-[1-(3-methoxy-propyl)-1H-tetrazol-5-yl]-methyl}-amine]
7.6 µM | COCCn1nnnc1C(NCCCn1ccnc1)c1cc(C)c(C)cc1C (stereo not drawn) [compound 43, (3-Imidazol-1-yl-propyl)-[[1-(2-methoxy-ethyl)-1H-tetrazol-5-yl]-(2,4,5-trimethyl-phenyl)-methyl]-amine]
6.7 µM | c1cn(CCCNC(c2ccc3[nH]ccc3c2)c2nnnn2C[C@@H]2CCCO2)cn1 (stereo partly drawn) [compound 13, (3-Imidazol-1-yl-propyl)-((1H-indol-5-yl)-{1-[(S)-1-(tetrahydro-furan-2-yl)methyl]-1H-tetrazol-5-yl}-methyl)-amine]
6.7 µM | c1ccc2oc(C(NCCCn3ccnc3)c3nnnn3C[C@@H]3CCCO3)cc2c1 (stereo partly drawn) [compound 15, (Benzofuran-2-yl-{1-[(S)-1-(tetrahydro-furan-2-yl)methyl]-1H-tetrazol-5-yl}-methyl)-(3-imidazol-1-yl-propyl)-amine]
6.7 µM | CCCCn1nnnc1C(NCCCn1ccnc1)c1ccc2[nH]ccc2c1 (stereo not drawn) [compound 21, [(1-Butyl-1H-tetrazol-5-yl)-(1H-indol-5-yl)-methyl]-(3-imidazol-1-yl-propyl)-amine]
6.7 µM | CC1=CCCC[C@@H]1C(NCCCn1ccnc1)c1nnnn1C1CCCC1 (stereo partly drawn) [compound 27, [(1-Cyclopentyl-1H-tetrazol-5-yl)-((S)-2-methyl-cyclohex-2-enyl)-methyl]-(3-imidazol-1-yl-propyl)-amine]
4 µM | Clc1ccc(C(NCCCn2ccnc2)c2nnnn2C[C@@H]2CCCO2)cc1Cl (stereo partly drawn) [compound 10]
4 µM | COCCCn1nnnc1C(NCCCn1ccnc1)c1cc(O)ccc1C (stereo not drawn) [compound 33, 3-{(3-Imidazol-1-yl-propylamino)-[1-(3-methoxy-propyl)-1H-tetrazol-5-yl]-methyl}-4-methyl-phenol]
3.1 µM | Cc1ccc(O)c(C(NCCCn2ccnc2)c2nnnn2C[C@@H]2CCCO2)c1 (stereo partly drawn) [compound 11, 2-((3-Imidazol-1-yl-propylamino)-{1-[(S)-1-(tetrahydro-furan-2-yl)methyl]-1H-tetrazol-5-yl}-methyl)-4-methyl-phenol]
3.1 µM | c1cn(CCCNC(c2ccc3[nH]ccc3c2)c2nnnn2C2CCCC2)cn1 (stereo not drawn) [compound 26]
3.1 µM | Cn1nnnc1C(NCCCn1ccnc1)c1ccc2cccc(O)c2n1 (stereo not drawn) [compound 29, 2-[(3-imidazol-1-yl-propylamino)-(1-methyl-1H-tetrazol-5-yl)-methyl]-quinolin-8-ol]
2.2 µM | Oc1cccc2ccc(C(NCCCn3ccnc3)c3nnnn3C[C@@H]3CCCO3)nc12 (stereo partly drawn) [compound 12, 2-((3-Imidazol-1-yl-propylamino)-{1-[(S)-1-(tetrahydro-furan-2-yl)methyl]-1H-tetrazol-5-yl}-methyl)-quinolin-8-ol]
2.2 µM | c1ccc2nc(C(NCCCn3ccnc3)c3nnnn3C[C@@H]3CCCO3)ccc2c1 (stereo partly drawn) [compound 14, (3-Imidazol-1-yl-propyl)-(quinolin-2-yl-{1-[(S)-1-(tetrahydro-furan-2-yl)methyl]-1H-tetrazol-5-yl}-methyl)-amine]
2.2 µM | Oc1cccc2ccc(C(NCCCn3ccnc3)c3nnnn3C3CCCC3)nc12 (stereo not drawn) [compound 25, 2-[(1-Cyclopentyl-1H-tetrazol-5-yl)-(3-imidazol-1-yl-propylamino)-methyl]-quinolin-8-ol]
2.2 µM | COCCCn1nnnc1C(NCCCn1ccnc1)c1ccc2cccc(O)c2n1 (stereo not drawn) [compound 34, 2-{(3-Imidazol-1-yl-propylamino)-[1-(3-methoxy-propyl)-1H-tetrazol-5-yl]-methyl}-quinolin-8-ol]

Reference: patent US7741354B2, “Inhibitors of glutaminyl cyclase” (Probiodrug AG, priority 2006, dated 2010)
